Results as given in patent US6407204B1 (priority 1997, dated 2002).
“Also recorded” adds a separate entry of the source.

Tests used:
[1] = test system: Male Sprague-Dawley rats; conditions: rat, in vivo
[2] = test system: formalin test; conditions: literature; ifenprodil at a high dose; cited from earlier work
[3] = test system: NMDA receptor; conditions: literature, cited from earlier work; for motor impairment: relative to analgesic doses
[4] = test system: Male Sprague-Dawley rats; conditions: rat, in vivo; remark: listed apart in the source
[5] = test system: NMDA polyamine site, forebrain membrane preparations; conditions: cited from earlier work
[6] = test system: cholinergic neurons of the QA lesioned striatum; conditions: rat, in vivo
[7] = test system: GABAergic neurons of the QA lesioned striatum; conditions: rat, in vivo

In the case of `C[C@]12N[C@H](Cc3ccccc31)c1ccccc12` [MK-801], the “side effects at the dose attenuating phase II flinches” value [1] is listed as “side effects, including head weaving”, the “toxicity at doses that decreased flinches” value [1] is listed as “clear toxicity” and the “analgesic effect in the formalin test” value [2] is listed as “submaximal analgesic effect”. The analgesic activity [3] was “show analgesic activity”, the motor impairment [3] was “show motor impairment at equivalent doses” and the “dose required to inhibit / significantly attenuate phase II flinches” value [4] was 30 µg.
For `CC(C(O)c1ccc(O)cc1)N1CCC(Cc2ccccc2)CC1` (stereo not shown) [ifenprodil], the “analgesic effect in the formalin test” value [2] is listed as “did not have an analgesic effect; also recorded: no effect”.
In the case of `c1ccc(C2(N3CCCCC3)CCCCC2)cc1` [phenylcyclidine (PCP), phenylcyclidine], the analgesic activity [3] is given as “show analgesic activity” and the motor impairment [3] is given as “show motor impairment at equivalent doses”.
For `NCCCNCCCCNCCCN` [spermine], the “maximal effective concentration for enhancement of [3H]MK-801 binding” value [5] is listed as “about 20 μM”.
In the case of “Gly-Glu-Gla-Gla-Leu-Gln-Gla-Asn-Gln-Gla-Leu-Ile-Arg-Gla-Lys-Ser-Asn-NH2 [Conantokin G]”, the “QA lesion-induced loss of ChAT activity” value [6] is reported as “completely blocked”, the “dose required to inhibit / significantly attenuate phase I flinches” value [4] is reported as 1.0 µg and the “dose required to inhibit / significantly attenuate phase II flinches” value [4] is reported as 0.05 µg. For the same compound, the “QA lesion-induced loss of GAD activity” value [7] was “completely blocked; also recorded: complete prevention”.
With “Gly-Glu-Gla-Gla-Val-Ala-Lys-Met-Ala-Ala-Glu-Leu-Ala-Arg-Glu-Asn-Ile-Ala-Lys-Gly-Cys-Lys-Val-Asn-Cys-Tyr-Pro [Conantokin R]” the “dose required to inhibit / significantly attenuate phase I flinches” value [4] was 3.3 µg and the “dose required to inhibit / significantly attenuate phase II flinches” value [4] was 3.3 µg.
For β-endorphin, the overt side effects [1] was “overt signs of sedation and motor impairment”, the “dose at which maximal possible effect was observed, phase I” value [4] was 1.0 µg and the “dose at which maximal possible effect was observed, phase II” value [4] was 3.3 µg. The “dose required to inhibit / significantly attenuate phase I flinches” value [4] was 0.3 µg, the “dose required to inhibit / significantly attenuate phase II flinches” value [4] was 0.6 µg and the “effect of the single agent alone” value [4] was “no effect”. For the same compound, the “effect on flinches in both phase I and phase II” value [4] was “dose-dependent decrease in flinches”, the “effect on phase I flinches” value [4] was “no effect” and the “effect on phase II flinches” value [4] was “no effect”.
